From patent US12077503B2, “Substituted cyclic amides and their use as herbicides” (FMC CORPORATION, priority 2015, dated 2024)
Read-outs that look alike come from different tables or passages of the source.

Key:
Assay type in all cases: in vivo
Kochia (Kochia scoparia) [1] = experiment: Test A preemergence; settings: Bassia scoparia, pre-emergence, 240 h; for pest or weed control at 125 g/ha: 125 g ai/ha; for pest or weed control at 500 g/ha: 500 g ai/ha
Procedure, shortened: (§1)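 Visual injury, scored on a 0–100 scale relative to untreated controls, was recorded about 10 d after application. Treatments were a preemergence soil spray over planted seeds or a postemergence spray on plants at the one- to two-leaf stage, 2 to 10 cm tall, all in loam soil–sand blend in the greenhouse.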

[2] = system: barnyardgrass (Echinochloa crus-galli); experiment: Test A preemergence; settings: Echinochloa crus-galli, pre-emergence, 240 h; for pest or weed control at 125 g/ha: 125 g ai/ha; for pest or weed control at 500 g/ha: 500 g ai/ha
Procedure, shortened: as §1

[3] = system: giant foxtail (Setaria faberii); experiment: Test A preemergence; settings: Setaria faberi, pre-emergence, 240 h; for pest or weed control at 125 g/ha: 125 g ai/ha; for pest or weed control at 500 g/ha: 500 g ai/ha
Procedure, shortened: as §1

[4] = system: pigweed (Amaranthus retroflexus); experiment: Test A preemergence; settings: Amaranthus retroflexus, pre-emergence, 240 h; for pest or weed control at 125 g/ha: 125 g ai/ha; for pest or weed control at 500 g/ha: 500 g ai/ha
[5] = system: ragweed (common ragweed, Ambrosia elatior); experiment: Test A preemergence; settings: Ambrosia artemisiifolia, pre-emergence, 240 h; for pest or weed control at 125 g/ha: 125 g ai/ha; for pest or weed control at 500 g/ha: 500 g ai/ha
Procedure, shortened: as §1

[6] = system: ryegrass, Italian (Italian ryegrass, Lolium multiflorum); experiment: Test A preemergence; settings: Lolium multiflorum, pre-emergence, 240 h; for pest or weed control at 125 g/ha: 125 g ai/ha; for pest or weed control at 500 g/ha: 500 g ai/ha
Procedure, shortened: as §1

Kochia (Kochia scoparia) [7] = experiment: Test A postemergence; settings: Bassia scoparia, post-emergence, 240 h, postemergence; for pest or weed control at 125 g/ha: 125 g ai/ha
Procedure, shortened: as §1

[8] = system: barnyardgrass (Echinochloa crus-galli); experiment: Test A postemergence; settings: Echinochloa crus-galli, post-emergence, 240 h; for pest or weed control at 125 g/ha: 125 g ai/ha
Procedure, shortened: as §1

[9] = system: blackgrass (Alopecurus myosuroides); experiment: Test A postemergence; settings: Alopecurus myosuroides, post-emergence, 240 h; for pest or weed control at 125 g/ha: 125 g ai/ha
Procedure, shortened: as §1

[10] = system: pigweed (Amaranthus retroflexus); experiment: Test A postemergence; settings: Amaranthus retroflexus, post-emergence, 240 h, postemergence; for pest or weed control at 125 g/ha: 125 g ai/ha
Procedure, shortened: as §1

[11] = system: barnyardgrass (Echinochloa crus-galli); experiment: Test B flooded paddy test; settings: Echinochloa crus-galli, Flood, 250 g ai/ha; scale of 0 to 100 where 0 is no effect and 100 is complete control; read-out: Barnyardgrass plant response rating
Procedure, shortened: (§2)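 Compound goes directly into floodwater once pots are flooded 3 cm above soil, targeting plants at two leaves; the water depth is then held for the test duration. Plants sit 13–15 d in a greenhouse and are rated visually, 100 denoting complete control.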

[12] = system: ducksalad (Heteranthera limosa); experiment: Test B flooded paddy test; settings: Heteranthera limosa, Flood, 250 g ai/ha; scale of 0 to 100 where 0 is no effect and 100 is complete control; read-out: Ducksalad plant response rating
Procedure, shortened: as §2

rice (Oryra sativa) = experiment: Test B flooded paddy test; settings: Oryza sativa, Flood, 250 g ai/ha; scale of 0 to 100 where 0 is no effect and 100 is complete control; read-out: Rice plant response rating
Procedure, shortened: as §2

[13] = system: sedge, umbrella (small-flower umbrella sedge, Cyperus difformis); experiment: Test B flooded paddy test; settings: Cyperus difformis, Flood, 250 g ai/ha; scale of 0 to 100 where 0 is no effect and 100 is complete control; read-out: Sedge, Umbrella plant response rating
Procedure, shortened: as §2

[14] = preemergence, 0 to 100 scale where 0 is no effect and 100 is complete control, read-out: Kochia plant response rating
[15] = Preemergence, visual injury vs untreated controls after approximately 10 d, read-out: Kochia plant response rating (0 to 100 scale where 0 is no effect and 100 is complete control)
[16] = preemergence, 0 to 100 scale where 0 is no effect and 100 is complete control, read-out: Barnyardgrass plant response rating
[17] = Preemergence, visual injury vs untreated controls after approximately 10 d, read-out: Barnyardgrass plant response rating (0 to 100 scale where 0 is no effect and 100 is complete control)
[18] = preemergence, 0 to 100 scale where 0 is no effect and 100 is complete control, read-out: Foxtail, Giant plant response rating
[19] = Preemergence, visual injury vs untreated controls after approximately 10 d, read-out: Foxtail, Giant plant response rating (0 to 100 scale where 0 is no effect and 100 is complete control)
[20] = preemergence, 0 to 100 scale where 0 is no effect and 100 is complete control, read-out: Pigweed plant response rating
[21] = Preemergence, visual injury vs untreated controls after approximately 10 d, read-out: Pigweed plant response rating (0 to 100 scale where 0 is no effect and 100 is complete control)
[22] = preemergence, 0 to 100 scale where 0 is no effect and 100 is complete control, read-out: Ragweed plant response rating
[23] = Preemergence, visual injury vs untreated controls after approximately 10 d, read-out: Ragweed plant response rating (0 to 100 scale where 0 is no effect and 100 is complete control)
[24] = preemergence, 0 to 100 scale where 0 is no effect and 100 is complete control, read-out: Ryegrass, Italian plant response rating
[25] = Preemergence, visual injury vs untreated controls after approximately 10 d, read-out: Ryegrass, Italian plant response rating (0 to 100 scale where 0 is no effect and 100 is complete control)
[26] = visual injury rating after approximately 10 d, read-out: Kochia plant response rating (0 to 100 scale, 0 no effect, 100 complete control)
[27] = postemergence, visual injury rating after approximately 10 d, read-out: Barnyardgrass plant response rating (0 to 100 scale, 0 no effect, 100 complete control)
[28] = visual injury rating after approximately 10 d, read-out: Pigweed plant response rating (0 to 100 scale, 0 no effect, 100 complete control)

| Structure (SMILES) | pest or weed control at 125 g/ha (Kochia (Kochia scoparia) [1]; [14]) [%] | pest or weed control at 500 g/ha (Kochia (Kochia scoparia) [1]; [15]) [%] | pest or weed control at 125 g/ha [2, 16] [%] | pest or weed control at 500 g/ha [2, 17] [%] | pest or weed control at 125 g/ha [3, 18] [%] | pest or weed control at 500 g/ha [3, 19] [%] | pest or weed control at 125 g/ha [4, 20] [%] | pest or weed control at 500 g/ha [4, 21] [%] | pest or weed control at 125 g/ha [5, 22] [%] | pest or weed control at 500 g/ha [5, 23] [%] | pest or weed control at 125 g/ha [6, 24] [%] | pest or weed control at 500 g/ha [6, 25] [%] | pest or weed control at 125 g/ha (Kochia (Kochia scoparia) [7]; [26]) [%] | pest or weed control at 125 g/ha [8, 27] [%] | pest or weed control at 125 g/ha [10, 28] [%] | pest or weed control at 250 g/ha [11] [%] | pest or weed control at 250 g/ha [12] [%] | pest or weed control at 250 g/ha (rice (Oryra sativa)) [%] | pest or weed control at 250 g/ha [13] [%] | also measured |
| --- | --- | --- | --- | --- | --- | --- | --- | --- | --- | --- | --- | --- | --- | --- | --- | --- | --- | --- | --- | --- |
| O=C1NC[C@H](c2ccc(F)c(OC(F)(F)C(F)(F)Br)c2)[C@H]1C(=O)Nc1cccc(F)c1F (racemic) [Compound 914] | 60 | 60 | 70 | 90 | 90 | 90 | 90 | 90 | 0 | 0 | 0 | 60 | 70 | 0 | 80 | 0 | 50 | 15 | 0 | pest or weed control at 125 g/ha ([9]; postemergence, visual injury rating after approximately 10 d, read-out: Blackgrass plant response rating (0 to 100 scale, 0 no effect, 100 complete control)): 0% |
| CS(=O)(=O)c1ccccc1NC(=O)[C@H]1C(=O)NC[C@@H]1c1cc(F)c(C(F)(F)F)c(F)c1 [Compound 839] | 90 | 90 | 80 | 90 | 90 | 90 | 90 | 90 | 80 | 90 | 0 | 40 | 70 | 60 | 80 | 0 | 70 | 0 | 0 |  |
| CSc1ccccc1NC(=O)[C@H]1C(=O)NC[C@@H]1c1ccc(C)c(C)c1 [Compound 1036] |  |  |  |  |  |  |  |  |  |  |  |  |  |  |  |  |  |  |  | pest or weed control at 125 g/ha (Kochia (Kochia scoparia) [1]; Preemergence, visual injury rating after approximately 10 d, read-out: Kochia plant response rating (0 to 100 scale, 0 is no effect, 100 is complete control)): 70%; pest or weed control at 500 g/ha (Kochia (Kochia scoparia) [1]; preemergence, visual injury rating about 10 d after treatment, 0 to 100 scale (0 no effect, 100 complete control), read-out: Kochia plant response rating): 90%; pest or weed control at 125 g/ha ([2]; Preemergence, visual injury rating after approximately 10 d, read-out: Barnyardgrass plant response rating (0 to 100 scale, 0 is no effect, 100 is complete control)): 90%; pest or weed control at 500 g/ha ([2]; preemergence, visual injury rating about 10 d after treatment, 0 to 100 scale (0 no effect, 100 complete control), read-out: Barnyardgrass plant response rating): 90%; pest or weed control at 125 g/ha ([3]; Preemergence, visual injury rating after approximately 10 d, read-out: Foxtail, Giant plant response rating (0 to 100 scale, 0 is no effect, 100 is complete control)): 70%; pest or weed control at 500 g/ha ([3]; preemergence, visual injury rating about 10 d after treatment, 0 to 100 scale (0 no effect, 100 complete control), read-out: Foxtail, Giant plant response rating): 90%; pest or weed control at 125 g/ha ([4]; Preemergence, visual injury rating after approximately 10 d, read-out: Pigweed plant response rating (0 to 100 scale, 0 is no effect, 100 is complete control)): 0%; pest or weed control at 500 g/ha ([4]; preemergence, visual injury rating about 10 d after treatment, 0 to 100 scale (0 no effect, 100 complete control), read-out: Pigweed plant response rating): 0%; pest or weed control at 125 g/ha ([5]; Preemergence, visual injury rating after approximately 10 d, read-out: Ragweed plant response rating (0 to 100 scale, 0 is no effect, 100 is complete control)): 0%; pest or weed control at 500 g/ha ([5]; preemergence, visual injury rating about 10 d after treatment, 0 to 100 scale (0 no effect, 100 complete control), read-out: Ragweed plant response rating): 50%; pest or weed control at 125 g/ha ([6]; Preemergence, visual injury rating after approximately 10 d, read-out: Ryegrass, Italian plant response rating (0 to 100 scale, 0 is no effect, 100 is complete control)): 20%; pest or weed control at 500 g/ha ([6]; preemergence, visual injury rating about 10 d after treatment, 0 to 100 scale (0 no effect, 100 complete control), read-out: Ryegrass, Italian plant response rating): 20%; pest or weed control at 125 g/ha (Kochia (Kochia scoparia) [7]; visual injury on 0 to 100 scale (0 no effect, 100 complete control), approx. 10 d, read-out: Kochia plant response rating): 0%; pest or weed control at 500 g/ha (Kochia (Kochia scoparia) [7]; 500 g ai/ha, visual injury, 0 to 100 scale (0 no effect, 100 complete control), approx. 10 d, read-out: Plant response rating, Kochia): 0%; pest or weed control at 125 g/ha ([8]; Postemergence, visual injury after approximately 10 d, 0 to 100 scale where 0 is no effect and 100 is complete control, read-out: Plant response rating, Barnyardgrass): 70%; pest or weed control at 500 g/ha ([8]; 500 g ai/ha, postemergence, visual injury, 0 to 100 scale (0 no effect, 100 complete control), approx. 10 d, read-out: Plant response rating, Barnyardgrass): 90%; pest or weed control at 125 g/ha ([9]; Postemergence, visual injury after approximately 10 d, 0 to 100 scale where 0 is no effect and 100 is complete control, read-out: Plant response rating, Blackgrass): 0%; pest or weed control at 500 g/ha ([9]; 500 g ai/ha, postemergence, visual injury, 0 to 100 scale (0 no effect, 100 complete control), approx. 10 d, read-out: Plant response rating, Blackgrass): 0%; pest or weed control at 125 g/ha ([10]; visual injury on 0 to 100 scale (0 no effect, 100 complete control), approx. 10 d, read-out: Pigweed plant response rating): 0%; pest or weed control at 500 g/ha ([10]; 500 g ai/ha, visual injury, 0 to 100 scale (0 no effect, 100 complete control), approx. 10 d, read-out: Plant response rating, Pigweed): 0% |
